The text below walks through data of US20260201008A1, “SECRETIN-DERIVED GLP1R SELECTIVE AGONISTS” (GUBRA A/S, priority 2023, published 2026).

One series concerns the target SCTR (Homo sapiens, UniProt P47872). Description: hSCTR potency, cAMP accumulation in CHO-K1 cells stably overexpressing hSCTR. Format: cell-based. Further details: alternatively Euroscreen ES-712-AF; FAST-0161L; host or cells: CHO-K1. The note with it: cAMP accumulation, CHO-K1 cells overexpressing hSCTR; read-out: hSCTR pEC50 (converted). The method, boiled down:
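Potency reflects cAMP accumulation after 30 min agonist exposure at room temperature in hSCTR-expressing CHO-K1 cells, with 0.5 mM IBMX present to block phosphodiesterase. EC50 was derived by nonlinear regression.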
(cAMP levels reflect the balance of adenylyl cyclase and phosphodiesterase activity.)

A further series concerns the target GLP1R (Homo sapiens, UniProt P43220). In words: hGLP1R potency, cAMP accumulation in CHO-K1 cells stably overexpressing hGLP1R. The note with it: for EC50: cAMP accumulation, CHO-K1 cells overexpressing hGLP1R, read-out: hGLP1R pEC50 (converted); for SCTR EC50/GLP1R EC50 ratio: selectivity for hGLP1R over hSCTR, cAMP accumulation in CHO-K1 cells. More on the design: host or cells: CHO-K1. Format: cell-based. The method, boiled down:
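Potency reflects cAMP accumulation measured by time-resolved fluorescence energy transfer after a 30 min room-temperature stimulation in IBMX-containing (0.5 mM) DPBS with casein. Purified peptides were tested in duplicate over eleven threefold dilutions, and EC50 was obtained from sigmoid concentration-response fitting.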

Series [1] is described as follows: Turbidity of crude library peptides (absorbance at 600 nm). The format is physicochemical. Conditions: Physical stability of peptides. The method, boiled down: (§1)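 Values reflect mean ThT emission (ex 450, em 480 nm) over 72 h at 40° C, read every 10 min after 5 min shaking at 700 rpm, plus a single initial absorbance at 600 nm for turbidity. Peptides were at 267 μM, pH 4.0 acetate or pH 7.0 phosphate (50 mM), with 4 μM ThT.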

Series [2] can be described thus: Fibril formation of crude library peptides (Thioflavin T). The format is physicochemical. Further details: key: average ThT fluorescence emission at 480 nm (ex 450 nm), raw units. Conditions: Physical stability of peptides. A digest of the protocol:
as §1

Numbered stars: 1 amine (or outer) side, 2 acyl side, 3 side chain; on linkers, the order of the positions; unused ones are H or OH. Square brackets hold non-standard residues; d marks the D form. Side chains are listed from the residue outwards. Peptide text beside a SMILES is read from it. * marks the point of attachment. C20 diacid = O=C(O)CCCCCCCCCCCCCCCCCCC(=O)*; γGlu = O=C(O)[C@H](CCC(=O)[*:2])N[*:1]; AEEA = NCCOCCOCC(=O)O; Aib = CC(C)(N)C(=O)O

Chain of GLP1R (P43220 24-463): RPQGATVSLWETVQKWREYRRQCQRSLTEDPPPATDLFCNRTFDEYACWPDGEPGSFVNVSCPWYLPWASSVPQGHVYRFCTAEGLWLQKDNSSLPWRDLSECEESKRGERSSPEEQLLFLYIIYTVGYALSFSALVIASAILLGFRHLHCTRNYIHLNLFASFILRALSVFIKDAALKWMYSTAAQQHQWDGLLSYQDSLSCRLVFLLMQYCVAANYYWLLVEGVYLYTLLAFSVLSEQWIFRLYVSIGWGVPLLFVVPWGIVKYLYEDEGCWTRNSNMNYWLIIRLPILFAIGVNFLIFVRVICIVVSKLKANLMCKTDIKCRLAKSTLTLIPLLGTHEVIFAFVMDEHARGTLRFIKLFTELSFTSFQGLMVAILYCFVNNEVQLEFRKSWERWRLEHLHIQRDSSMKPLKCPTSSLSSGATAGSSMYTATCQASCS
Chain of SCTR (P47872 23-440): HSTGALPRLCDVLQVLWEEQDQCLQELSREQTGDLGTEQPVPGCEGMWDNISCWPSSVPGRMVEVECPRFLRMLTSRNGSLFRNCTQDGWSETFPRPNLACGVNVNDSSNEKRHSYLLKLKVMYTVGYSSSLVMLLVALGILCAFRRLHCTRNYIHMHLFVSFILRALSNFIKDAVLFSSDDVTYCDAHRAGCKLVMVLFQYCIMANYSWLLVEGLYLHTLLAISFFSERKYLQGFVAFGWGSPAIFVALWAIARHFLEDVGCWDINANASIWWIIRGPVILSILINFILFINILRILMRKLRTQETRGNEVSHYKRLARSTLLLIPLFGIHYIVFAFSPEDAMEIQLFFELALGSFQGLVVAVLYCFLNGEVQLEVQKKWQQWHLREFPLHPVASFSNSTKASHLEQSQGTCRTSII

As for `CC(C)C[C@H](NC(=O)[C@H](Cc1c[nH]c2ccccc12)NC(=O)[C@H](CCCNC(=N)N)NC(=O)[C@H](CCC(N)=O)NC(=O)[C@H](CC(C)C)NC(=O)C(C)(C)NC(=O)[C@H](C)NC(=O)[C@H](CCC(=O)O)NC(=O)[C@H](CCC(=O)O)NC(=O)[C@H](CCCCNC(=O)COCCOCCNC(=O)COCCOCCNC(=O)CC[C@H](NC(=O)CCCCCCCCCCCCCCCCCCC(=O)O)C(=O)O)NC(=O)[C@H](CC(C)C)NC(=O)[C@H](Cc1ccc(O)cc1)NC(=O)[C@H](CO)NC(=O)[C@@H](NC(=O)[C@H](CC(=O)O)NC(=O)[C@H](CO)NC(=O)[C@@H](NC(=O)[C@H](Cc1ccccc1)NC(=O)[C@@H](NC(=O)CNC(=O)[C@H](CCC(=O)O)NC(=O)C(C)(C)NC(=O)[C@@H](N)Cc1c[nH]cn1)[C@@H](C)O)[C@@H](C)O)C(C)C)C(=O)N[C@@H](CCC(=O)O)C(=O)N[C@@H](Cc1c[nH]cn1)C(=O)N[C@@H](CC(C)C)C(=O)N[C@H](C(N)=O)C(C)C` [compound 135] (H-H[Aib]EGTFTSDVSYLK([AEEA-AEEA-γGlu-C20 diacid])EEA[Aib]LQRWLEHLV-NH2), on SCTR, the EC50 is 126 nM. At GLP1R, the EC50 is 0.00501 nM and the “SCTR EC50/GLP1R EC50 ratio” value is reported as 22241. In addition, in series [1], the “Turbidity (pH 7)” value is 0.09. Moreover, in series [2], the Fibril formation was 4491.

In the case of `CC(C)C[C@H](NC(=O)[C@H](Cc1ccccc1)NC(=O)[C@H](CCCNC(=N)N)NC(=O)[C@H](CCC(N)=O)NC(=O)[C@H](CC(C)C)NC(=O)C(C)(C)NC(=O)[C@H](C)NC(=O)[C@H](CCC(=O)O)NC(=O)[C@H](CCC(=O)O)NC(=O)[C@H](CCCCNC(=O)COCCOCCNC(=O)COCCOCCNC(=O)CC[C@H](NC(=O)CCCCCCCCCCCCCCCCCCC(=O)O)C(=O)O)NC(=O)[C@H](CC(C)C)NC(=O)[C@H](CC(N)=O)NC(=O)[C@H](CO)NC(=O)[C@@H](NC(=O)[C@H](CC(=O)O)NC(=O)[C@H](CO)NC(=O)[C@@H](NC(=O)[C@H](Cc1ccccc1)NC(=O)[C@@H](NC(=O)CNC(=O)[C@H](CCC(=O)O)NC(=O)C(C)(C)NC(=O)[C@@H](N)Cc1c[nH]cn1)[C@@H](C)O)[C@@H](C)O)C(C)C)C(=O)N[C@@H](CCC(=O)O)C(=O)N[C@@H](Cc1c[nH]cn1)C(=O)N[C@@H](CC(C)C)C(=O)N[C@H](C(N)=O)C(C)C` [compound 136] (H-H[Aib]EGTFTSDVSNLK([AEEA-AEEA-γGlu-C20 diacid])EEA[Aib]LQRFLEHLV-NH2), the EC50 on SCTR was 12.6 nM. In addition, on GLP1R, the EC50 was 0.0126 nM and the “SCTR EC50/GLP1R EC50 ratio” value is recorded as 857. Besides, in series [1], the “Turbidity (pH 7)” value is 0.08. In addition, the Fibril formation in series [2] is 3353.

As to `CC(C)C[C@H](NC(=O)[C@H](C)NC(=O)[C@H](C)NC(=O)[C@H](CCC(=O)O)NC(=O)[C@H](CCC(=O)O)NC(=O)[C@H](CCCCNC(=O)COCCOCCNC(=O)COCCOCCNC(=O)CC[C@H](NC(=O)CCCCCCCCCCCCCCCCCCC(=O)O)C(=O)O)NC(=O)[C@H](CC(C)C)NC(=O)[C@H](Cc1ccc(O)cc1)NC(=O)[C@H](CO)NC(=O)[C@@H](NC(=O)[C@H](CC(=O)O)NC(=O)[C@H](CO)NC(=O)[C@@H](NC(=O)[C@H](Cc1ccccc1)NC(=O)[C@@H](NC(=O)CNC(=O)[C@H](CCC(=O)O)NC(=O)C(C)(C)NC(=O)[C@@H](N)Cc1c[nH]cn1)[C@@H](C)O)[C@@H](C)O)C(C)C)C(=O)N[C@@H](CCC(N)=O)C(=O)N[C@@H](CCCNC(=N)N)C(=O)N[C@@H](Cc1ccccc1)C(=O)N[C@@H](CC(C)C)C(=O)N[C@@H](CCC(=O)O)C(=O)N[C@@H](Cc1c[nH]cn1)C(=O)N[C@@H](CC(C)C)C(=O)N[C@H](C(N)=O)C(C)C` [compound 137] (H-H[Aib]EGTFTSDVSYLK([AEEA-AEEA-γGlu-C20 diacid])EEAALQRFLEHLV-NH2), the EC50 was 79.4 nM at SCTR and 0.00794 nM on GLP1R. At GLP1R, the “SCTR EC50/GLP1R EC50 ratio” value was 9970. Moreover, the “Turbidity (pH 7)” value in series [1] was determined as 0.09. The Fibril formation in series [2] was 4019.

As to `CC(C)C[C@H](NC(=O)[C@H](Cc1ccccc1)NC(=O)[C@H](CCCNC(=N)N)NC(=O)[C@H](CCC(N)=O)NC(=O)[C@H](CC(C)C)NC(=O)C(C)(C)NC(=O)[C@H](C)NC(=O)[C@H](CCC(=O)O)NC(=O)[C@H](CCC(=O)O)NC(=O)[C@H](CCCCNC(=O)COCCOCCNC(=O)COCCOCCNC(=O)CC[C@H](NC(=O)CCCCCCCCCCCCCCCCCCC(=O)O)C(=O)O)NC(=O)[C@H](CC(C)C)NC(=O)[C@@H](NC(=O)[C@H](CO)NC(=O)[C@@H](NC(=O)[C@H](CC(=O)O)NC(=O)[C@H](CO)NC(=O)[C@@H](NC(=O)[C@H](Cc1ccccc1)NC(=O)[C@@H](NC(=O)CNC(=O)[C@H](CCC(=O)O)NC(=O)C(C)(C)NC(=O)[C@@H](N)Cc1c[nH]cn1)[C@@H](C)O)[C@@H](C)O)C(C)C)C(C)C)C(=O)N[C@@H](CCC(=O)O)C(=O)N[C@@H](Cc1c[nH]cn1)C(=O)N[C@@H](CC(C)C)C(=O)N[C@H](C(N)=O)C(C)C` [compound 138] (H-H[Aib]EGTFTSDVSVLK([AEEA-AEEA-γGlu-C20 diacid])EEA[Aib]LQRFLEHLV-NH2), the EC50 was 31.6 nM on SCTR and 0.0126 nM at GLP1R. Besides, the “SCTR EC50/GLP1R EC50 ratio” value on GLP1R was determined as 2569. Moreover, the “Turbidity (pH 7)” value in series [1] turned out to be 0.09. Also, the Fibril formation in series [2] was determined as 3306.

`CC[C@H](C)[C@H](NC(=O)C(C)(C)NC(=O)[C@H](C)NC(=O)[C@H](CCC(=O)O)NC(=O)[C@H](CCC(=O)O)NC(=O)[C@H](CCCCNC(=O)COCCOCCNC(=O)COCCOCCNC(=O)CC[C@H](NC(=O)CCCCCCCCCCCCCCCCCCC(=O)O)C(=O)O)NC(=O)[C@H](CC(C)C)NC(=O)[C@H](Cc1ccc(O)cc1)NC(=O)[C@H](CO)NC(=O)[C@@H](NC(=O)[C@H](CC(=O)O)NC(=O)[C@H](CO)NC(=O)[C@@H](NC(=O)[C@H](Cc1ccccc1)NC(=O)[C@@H](NC(=O)CNC(=O)[C@H](CCC(=O)O)NC(=O)C(C)(C)NC(=O)[C@@H](N)Cc1c[nH]cn1)[C@@H](C)O)[C@@H](C)O)C(C)C)C(=O)N[C@@H](CCC(N)=O)C(=O)N[C@@H](CCCNC(=N)N)C(=O)N[C@@H](Cc1ccccc1)C(=O)N[C@@H](CC(C)C)C(=O)N[C@@H](CCC(=O)O)C(=O)N[C@@H](Cc1c[nH]cn1)C(=O)N[C@@H](CC(C)C)C(=O)N[C@H](C(N)=O)C(C)C` [compound 139] (H-H[Aib]EGTFTSDVSYLK([AEEA-AEEA-γGlu-C20 diacid])EEA[Aib]IQRFLEHLV-NH2): the results for the EC50 on SCTR and at GLP1R were 126 nM and 0.00631 nM, respectively. Also, the “SCTR EC50/GLP1R EC50 ratio” value at GLP1R is on record as 21979. Also, the “Turbidity (pH 7)” value in series [1] came to 0.09. For the same molecule, in series [2], the Fibril formation is listed as 4010.

As for `CC(C)C[C@H](NC(=O)[C@H](Cc1ccccc1)NC(=O)[C@H](CCCNC(=N)N)NC(=O)[C@H](CCC(N)=O)NC(=O)[C@H](CC(C)C)NC(=O)C(C)(C)NC(=O)[C@H](C)NC(=O)[C@H](CCC(=O)O)NC(=O)[C@H](CCC(=O)O)NC(=O)[C@H](CCCCNC(=O)COCCOCCNC(=O)COCCOCCNC(=O)CC[C@H](NC(=O)CCCCCCCCCCCCCCCCCCC(=O)O)C(=O)O)NC(=O)[C@H](CC(C)C)NC(=O)[C@@H]1CCCN1C(=O)[C@H](CO)NC(=O)[C@@H](NC(=O)[C@H](CC(=O)O)NC(=O)[C@H](CO)NC(=O)[C@@H](NC(=O)[C@H](Cc1ccccc1)NC(=O)[C@@H](NC(=O)CNC(=O)[C@H](CCC(=O)O)NC(=O)C(C)(C)NC(=O)[C@@H](N)Cc1c[nH]cn1)[C@@H](C)O)[C@@H](C)O)C(C)C)C(=O)N[C@@H](CCC(=O)O)C(=O)N[C@@H](Cc1c[nH]cn1)C(=O)N[C@@H](CC(C)C)C(=O)N[C@H](C(N)=O)C(C)C` [compound 140] (H-H[Aib]EGTFTSDVSPLK([AEEA-AEEA-γGlu-C20 diacid])EEA[Aib]LQRFLEHLV-NH2), the EC50 was 20000 nM on SCTR and 1.26 nM at GLP1R. Also, the “SCTR EC50/GLP1R EC50 ratio” value at GLP1R came to 14381. In addition, the “Turbidity (pH 7)” value in series [1] is listed as 0.08. The Fibril formation in series [2] was found to be 2733.

As to `CC(C)C[C@H](NC(=O)[C@H](Cc1ccc(O)cc1)NC(=O)[C@H](CCCNC(=N)N)NC(=O)[C@H](CCC(N)=O)NC(=O)[C@H](CC(C)C)NC(=O)C(C)(C)NC(=O)[C@H](C)NC(=O)[C@H](CCC(=O)O)NC(=O)[C@H](CCC(=O)O)NC(=O)[C@H](CCCCNC(=O)COCCOCCNC(=O)COCCOCCNC(=O)CC[C@H](NC(=O)CCCCCCCCCCCCCCCCCCC(=O)O)C(=O)O)NC(=O)[C@H](CC(C)C)NC(=O)[C@H](Cc1ccc(O)cc1)NC(=O)[C@H](CO)NC(=O)[C@@H](NC(=O)[C@H](CC(=O)O)NC(=O)[C@H](CO)NC(=O)[C@@H](NC(=O)[C@H](Cc1ccccc1)NC(=O)[C@@H](NC(=O)CNC(=O)[C@H](CCC(=O)O)NC(=O)C(C)(C)NC(=O)[C@@H](N)Cc1c[nH]cn1)[C@@H](C)O)[C@@H](C)O)C(C)C)C(=O)N[C@@H](CCC(=O)O)C(=O)N[C@@H](Cc1c[nH]cn1)C(=O)N[C@@H](CC(C)C)C(=O)N[C@H](C(N)=O)C(C)C` [compound 141] (H-H[Aib]EGTFTSDVSYLK([AEEA-AEEA-γGlu-C20 diacid])EEA[Aib]LQRYLEHLV-NH2), the EC50 on SCTR is 251 nM. Moreover, at GLP1R, the EC50 is 0.00398 nM and the “SCTR EC50/GLP1R EC50 ratio” value was determined as 59910. Also, the “Turbidity (pH 7)” value in series [1] was determined as 0.08. In addition, the Fibril formation in series [2] worked out at 3233.
